Results taken from paper PMC10955247, “In vivo screening for toxicity-modulating drug interactions identifies antagonism that protects against ototoxicity in zebrafish” (Frontiers in Pharmacology, 2024).
“Also recorded” adds a separate entry of the source. Counter-ions that a name gives are not always drawn.

Key:
[1] = system: zebrafish lateral line hair cells; experiment: PEPITA quantification of ototoxicity in YO-PRO-1-stained AB zebrafish larvae; assay type: in vivo; conditions: for ototoxic interaction with AZM: co-administration with AZM; for shift toward antagonism in lateral line HC damage as compared to inhibition of the bacterial species on average: interaction with AZM, zebrafish wEOB vs average of E. coli, M. abscessus, S. aureus; for EC75 shift: ototoxin co-administered with azithromycin (AZM) vs administered alone; for ototoxic interaction with clarithromycin (CLM): preliminary experiments; for interaction with neomycin in pairwise screen (wEOB): pairwise screen of NEO against 13 compounds; for HC inhibition: in the absence of AZM, 25 μM CAP, 600 μM CIS; for EC50 shift: ototoxin co-administered with AZM vs alone
Protocol: Therefore, at 5 dpf, larvae were transferred to 12-well plates (5–11 fish per well, 1 well per condition) containing the relevant compound or combination diluted with ICS water, or ICS water alone or high-dose neomycin to serve as controls. Unless otherwise noted, fish were exposed to drug (either an individual compound or a pairwise combination of compounds) for 4 h, as a balance between longer exposure times for accommodating varied kill kinetics and shorter exposure times for technical tractability. Treatments with multiple drugs involved co-administering a prepared solution consisting of both drugs with defined concentrations in ICS water.
Fluorescence microscopy was performed using a Keyence BZ-X800 microscope imaging system, which enables high-throughput semi-automated imaging of 96-well plates.
Each image was masked using automated object detection to include only the fish itself. Manual masks were created on occasion for avoidance of fluorescent contamination, adjusted segmenting for myo6b::gfp fish to remove inner ear HC fluorescence, or exclusion of dead or damaged fish. Each fish was then adjusted for autofluorescence using the fluorophore-free red channel and scored based on the sum of green fluorescence pixel values surrounding 10 of the top 15 brightest pixels in the masked image (Figures 1B–E). These scores were standardized by comparison with the median score of wells containing untreated fish and a score representing no remaining HC fluorescence, both derived for each plate.
Wells where the expected response ( Ra×Rb ) and observed response ( Rab ) were both less than 10% or greater than 90% were excluded from aggregation to reduce the effect of our choice of dose range. The remaining wells were summarized by averaging into a composite interaction score for the combination; we refer to this metric as the “windowed excess over Bliss” (wEOB).

[2] = system: zebrafish lateral line hair cells; experiment: Uptake of TexasRed-conjugated neomycin (NEO-TR) into lateral line HCs; assay type: in vivo, Danio rerio; conditions: for accumulation of NEO-TR within lateral line HCs: NEO-TR 50 μM, 30 min, co-administered AZM 190 µM or BZM 50 µM, myo6b::gfp larvae; for Details (uptake inhibitor mechanism): Table S1, by means other than MET channel inhibition (this study)
Description: To further explore the mechanism of macrolide and aminoglycoside antagonism, we fluorescently labeled the aminoglycosides neomycin and gentamicin with Texas Red-X succinimidyl ester to track HC uptake with and without macrolide treatment (Table 1). To avoid breakdown of fluorescent vital dyes over time, we used larvae with the transgene Tg(myo6b:EGFP); myo6b::gfp, that expressed GFP in their HCs. Drug-induced injury was quantified by loss of fluorescence in HCs. Fish were exposed to the fluorescently-labeled drug with or without macrolide co-administration for 30 min, before being washed in fresh ICS water and anesthetized with 675 µM tricaine. Five fish per condition were transferred to 96-well plates for imaging, as per the drug response testing experiments, while another five were euthanized on ice for 20 min, then fixed in 2% paraformaldehyde for 1 hour at room temperature, to prepare for confocal microscopy. Samples were prepared and GFP fluorescence was acquired following the same confocal imaging procedure as described in Section 2.3; TexasRed fluorescence was acquired with a 595 nm laser and 675/75 emission filter.
For the fish transferred to 96-well plates for imaging, fluorescence microscopy was performed using the Keyence BZ-X800. Using the GFP filter and a TexasRed Filter (630/75 nm emission, 560/40 nm excitation), each myo6b::gfp fish was imaged under a ×2 objective to capture the whole organism in brightfield, green, and red fluorescence channels. Each fish was then imaged under a ×40 objective with z-stacking to track the uptake of the fluorescently labeled aminoglycoside into the HCs in the head of the fish.

MET channel = experiment: FM1-43 uptake quantification in lateral line HCs (MET channel activity); assay type: in vivo, Danio rerio; conditions: AZM 190 µM, BZM 50 µM, 30 min, myo6b::gfp larvae
Protocol: FM1-43 experiments were performed with myo6b::gfp fish, raised to 5 dpf as above. Fish were exposed to drug conditions for 30 min, with 4 µM FM1-43 stain added into the drug treatment solution at minute 29, for a 1-min co-treatment stain exposure followed by simultaneous washout of all drugs and stain in fish water and anesthesia in 675 µM tricaine (selection of staining concentration and exposure duration was informed by ([Hernandez et al., 2006]; [Van Trump et al., 2010]; [Thomas et al., 2013]; [Monroe et al., 2016]; [Hailey et al., 2017]; [Majumder et al., 2017]; [Rocha-Sanchez et al., 2018]; [Stawicki et al., 2019]; [Parkinson and Stawicki, 2021]; [Lee et al., 2022]; [Derudas et al., 2023]; [Schrauwen et al., 2023])). Four to seven fish per condition were transferred to 96-well plates for imaging. Using the Keyence BZ-X800 with GFP filter and a custom filter (605/70 nm emission, 470/40 nm excitation), each fish was imaged with a ×2 objective in brightfield and green and red fluorescence channels as above. FM1-43 uptake was validated using benzamil, a known uptake inhibitor ([Rusch et al., 1994]).

[3] = system: zebrafish lateral line hair cells; experiment: Lateral line hair cell intracellular calcium imaging and cell death; assay type: in vivo
Description: For calcium testing, zebrafish expressing HC-specific GCaMP targeted to the inner mitochondrial matrix were crossed with fish expressing a HC specific calcium indicator to create double-transgenic embryos (Tg (myo6b:mitoGCaMP3;myo6b:cytoRGECO), Table 1) with both green fluorescent mitochondrial calcium and red fluorescent cytosolic calcium indicators, then raised as described previously ([McQuate et al., 2023]). Zebrafish embryos were collected from 2-h spawning periods and raised in Petri dishes in embryo medium (EM: 14.97 mM NaCl, 500 μM KCl, 42 µM Na2HPO4, 150 µM KH2PO4, 1 mM CaCl2 dehydrate, 1 mM MgSO4, 0.714 mM NaHCO3, pH 7.2) at a density of 60 larvae per […] dish, in a dark 28.5°C incubator until 5 dpf. Larvae were screened for indicator expression at 4 dpf.
Calcium imaging was performed using an inverted Marianas spinning disk confocal system (Intelligent Imaging Innovations, 3i) with an Evolve 10 MHz EMCCD camera (Photometrics) and a Zeiss C-Apochromat 63x/1.2 numerical aperture water objective. Larvae were 5-6 dpf at the time of imaging. Larvae were first anesthetized in embryo media containing 800 µM tricaine, then stabilized on their sides under a harp, so that posterior neuromasts were exposed to the surrounding media. Imaging was performed at ambient temperature, approximately 25°C. GCaMP fluorescence was acquired with a 488 nm laser and 535/30 emission filter, with an exposure time of 100 ms, and RGECO fluorescence was acquired with a 561 nm laser and 617/73 emission filter and exposure time of 200 ms. Images were taken every 2 minutes as z-stacks through neuromasts in 2 µm steps. Neomycin and azithromycin were dissolved as a 4X stock in EM (described in Section 2.1: Zebrafish Husbandry), then added to the bath to achieve final working concentration after a 10-min baseline. Imaging of neuromasts continued for 50 min. Images were analyzed in ImageJ. Mean fluorescence intensity was measured for ROIs of individual randomly selected HCs (2–3 HCs per NM, see example ROI in Figure 4). For each HC, values were normalized to the average of baseline using Microsoft Excel.

NCC[C@H](O)C(=O)N[C@@H]1C[C@H](N)[C@@H](O[C@H]2O[C@H](CN)[C@@H](O)[C@H](O)[C@H]2O)[C@H](O)[C@H]1O[C@H]1O[C@H](CO)[C@@H](O)[C@H](N)[C@H]1O [Amikacin (AMK), Amikacin sulfate] was tested, and the “ototoxic interaction with AZM” value [1] was “otoprotective antagonistic interactions”, the “shift toward antagonism in lateral line HC damage as compared to inhibition of the bacterial species on average” value [1] was 31 %pt and the EC75 shift [1] was 8-fold. For the same compound, the “ototoxic interaction with clarithromycin (CLM)” value (shortened to “ototoxic interaction … (CLM)”) [1] was “antagonistic interactions”.
For CC[C@H]1OC(=O)[C@H](C)[C@@H](O[C@H]2C[C@@](C)(OC)[C@@H](O)[C@H](C)O2)[C@H](C)[C@@H](O[C@@H]2O[C@H](C)C[C@H](N(C)C)[C@H]2O)[C@](C)(O)C[C@@H](C)CN(C)[C@H](C)[C@@H](O)[C@]1(C)O [Azithromycin, Azithromycin dihydrate], the “accumulation of NEO-TR within lateral line HCs” value ([2]; listed as AZM) was “inhibition of NEO-TR uptake; also recorded: reduced HC accumulation of NEO-TR”, the “Details (uptake inhibitor mechanism)” value [2] was “Prevents neomycin uptake” and the “FM1-43 uptake into lateral line HCs” value (MET channel; listed as AZM) was “does not significantly hinder FM1-43 uptake; also recorded: did not significantly change FM1-43 accumulation in HCs”. For the same compound, the “RFU remaining on average” value ([1]; 380µM AZM alone, aggregate dose response, AB and myo6b::gfp fish) was “Approximately 65%”, the “protection against NEO and GEN ototoxicity by co-administration” value ([1]; 1 h (acute) and 4 h (extended) treatment, conditions in which monotherapy induced significant damage) was “significant protection” and the “RFU (residual HC fluorescence)” value ([1]; AZM 380 μM, NEO 0 μM, 4 h) was 48%. The “protection from CAP-associated damage by co-administration” value ([1]; capreomycin) was “significant but less pronounced protection”, the “protection against damage caused by higher doses of CIS by co-administration” value ([1]; cisplatin) was “significant but modest protection” and the “interaction with neomycin in pairwise screen (wEOB)” value [1] was “one of the strongest antagonizing compounds”. The “HC cell death (observation)” value ([3]; NEO 50 µM, AZM 190 µM, calcium imaging) was “low levels of cell death”, the “HC mitochondrial and cytoplasmic calcium response” value ([3]; NEO 50 µM, AZM 190 µM, mitoGCaMP3, cytoRGECO larvae) was “occasionally observed increases in mitochondrial calcium” and the cells that survived ([3]; calcium imaging) was 24/25.
In the case of NC(=NCc1ccccc1)NC(=O)c1nc(Cl)c(N)nc1N [BZM, Benzamil], the “accumulation of NEO-TR within lateral line HCs” value [2] is reported as “inhibition of NEO-TR uptake”, the “FM1-43 uptake into lateral line HCs” value (MET channel) is reported as “does significantly reduce FM1-43 uptake; also recorded: significant inhibition of FM1-43 uptake” and the “interaction with neomycin in pairwise screen (wEOB)” value [1] is reported as “deviate toward antagonism”.
For N.N.[Cl][Pt][Cl] [Cisplatin (CIS), Cisplatin], the HC inhibition [1] was 81%, the EC50 shift [1] was 1.4 fold and the EC75 shift [1] was 1.8-fold. The EC75 shift ([1]; listed as CIS) was 1.8 fold.
In the case of CC[C@H]1OC(=O)[C@H](C)[C@@H](O[C@H]2C[C@@](C)(OC)[C@@H](O)[C@H](C)O2)[C@H](C)[C@@H](O[C@@H]2O[C@H](C)C[C@H](N(C)C)[C@H]2O)[C@](C)(O)C[C@@H](C)C(=O)[C@H](C)[C@@H](O)[C@]1(C)O [Erythromycin], the “Details (uptake inhibitor mechanism)” value [2] is reported as “Prevents neomycin uptake” and the “otoprotection against aminoglycoside ototoxicity during co-administration” value ([1]; macrolide co-administered with aminoglycosides) is reported as “antagonistic otoprotection broadly against aminoglycoside ototoxicity”.
In the case of CNC(C)C1CCC(N)C(OC2C(N)CC(N)C(OC3OCC(C)(O)C(NC)C3O)C2O)O1 (stereo not shown) [Gentamicin (GEN), Gentamicin sulfate], the “ototoxic interaction with AZM” value [1] is reported as “otoprotective antagonistic interactions”, the “shift toward antagonism in lateral line HC damage as compared to inhibition of the bacterial species on average” value [1] is reported as 37 %pt and the EC75 shift [1] is reported as 13-fold. The “ototoxic interaction … (CLM)” value [1] was “antagonistic interactions”.
NC[C@H]1O[C@H](O[C@H]2[C@H](O)[C@@H](O[C@H]3O[C@H](CO)[C@@H](O)[C@H](N)[C@H]3O)[C@H](N)C[C@@H]2N)[C@H](O)[C@@H](O)[C@@H]1O [Kanamycin (KAN), Kanamycin sulfate] was tested, and the “ototoxic interaction with AZM” value [1] was “otoprotective antagonistic interactions”, the “shift toward antagonism in lateral line HC damage as compared to inhibition of the bacterial species on average” value [1] was 45 %pt and the EC75 shift [1] was >16-fold. The “ototoxic interaction … (CLM)” value [1] was “antagonistic interactions”.
For NC[C@H]1O[C@H](O[C@H]2[C@H](O)[C@@H](O[C@H]3O[C@H](CO)[C@@H](O)[C@H](N)[C@H]3O)[C@H](N)C[C@@H]2N)[C@H](N)C[C@@H]1O [Tobramycin (TOB), Tobramycin], the “ototoxic interaction with AZM” value [1] was “otoprotective antagonistic interactions”, the “shift toward antagonism in lateral line HC damage as compared to inhibition of the bacterial species on average” value [1] was 15 %pt and the EC75 shift [1] was >16-fold.
In the case of Capreomycin sulfate [Capreomycin (CAP)], the HC inhibition [1] is reported as 90%, the EC50 shift [1] is reported as 1.9 fold and the EC75 shift [1] is reported as 2.8-fold. For the same compound, the EC75 shift ([1]; listed as CAP) was 2.8 fold.
